In ChEMBL document CHEMBL4229544, “Design, synthesis and antibacterial properties of pyrimido[4,5-b]indol-8-amine inhibitors of DNA gyrase” (Bioorg Med Chem Lett, 2018):
In brackets after ≈: the same amount, converted by molar mass.

How the values were obtained:
Type in all cases: functional
[1] = tested on: Mycobacterium tuberculosis; assay: Antitubercular activity against fluoroquinolone-resistant Mycobacterium tuberculosis H37Rv harboring gyrA D94N mutant
[2] = tested on: Mycobacterium tuberculosis; assay: Antitubercular activity against isoniazid-resistant Mycobacterium tuberculosis H37Rv harboring katG Y155 mutant
[3] = tested on: Mycobacterium tuberculosis; assay: Antitubercular activity against rifampicin-resistant Mycobacterium tuberculosis H37Rv harboring RpoB S522L mutant

| Compound | MIC [1] | MIC [2] | MIC [3] |
| --- | --- | --- | --- |
| CO[C@@H]1[C@@H](OC(N)=O)[C@@H](O)[C@H](Oc2ccc3c(O)c(NC(=O)c4ccc(O)c(CC=C(C)C)c4)c(=O)oc3c2C)OC1(C)C [NOVOBIOCIN] | 7.35 µg/mL (≈ 12 µM) | 6.7 µg/mL (≈ 10.9 µM) | 13.5 µg/mL (≈ 22 µM) |
| COc1c(N2C[C@@H]3CCCN[C@@H]3C2)c(F)cc2c(=O)c(C(=O)O)cn(C3CC3)c12 [MOXIFLOXACIN] | 3.9 µg/mL (≈ 9.72 µM) | 0.04 µg/mL (≈ 0.0996 µM) | 0.04 µg/mL (≈ 0.0996 µM) |
| NNC(=O)c1ccncc1 [ISONIAZID] | 0.05 µg/mL (≈ 0.365 µM) | >27 µg/mL | 0.014 µg/mL (≈ 0.102 µM) |
| CO[C@H]1/C=C/O[C@@]2(C)Oc3c(C)c(O)c4c(O)c(c(/C=N/N5CCN(C)CC5)c(O)c4c3C2=O)NC(=O)/C(C)=C\C=C\[C@H](C)[C@H](O)[C@@H](C)[C@@H](O)[C@@H](C)[C@H](OC(C)=O)[C@@H]1C [RIFAMPIN] | 0.019 µg/mL (≈ 0.0231 µM) | 0.013 µg/mL (≈ 0.0158 µM) | 3 µg/mL (≈ 3.65 µM) |
| CNc1cc(F)cc2c1[nH]c1nc(CNC(=O)c3cocn3)nc(N3CCC(N)C3)c12 (stereo not drawn) | 0.014 µg/mL (≈ 0.033 µM) | 0.013 µg/mL (≈ 0.0306 µM) | 0.012 µg/mL (≈ 0.0283 µM) |
| CNc1cc(F)cc2c1[nH]c1nc(CNC(=O)c3cnco3)nc(N3CCC(N)C3)c12 (stereo not drawn) | 0.09 µg/mL (≈ 0.212 µM) | 0.09 µg/mL (≈ 0.212 µM) | 0.09 µg/mL (≈ 0.212 µM) |
